Data: patent publication US20250353841A1 (BIOGEN MA INC., priority 2022, published 2025)

Test system: mutant Huntington (HTT) protein
Assay: HTT Mutant HTRF iPSC assay (mHTT protein lowering)
Assay type: cell-based
Conditions: human iPSC derived from a HTT patient with a poly-Q49 mutation

## Cc1cn2nc(-c3cc(F)c4nc(C(=O)NC5CN(CC6CC6)C5)cn4c3)cc(C)c2n1 [Compound 339, N-[1-(cyclopropylmethyl)azetidin-3-yl]-6-(2,8-dimethylimidazo[1,2-b]pyridazin-6-yl)-8-fluoro-imidazo[1,2-a]pyridine-2-carboxamide]
  IC50: < 100 nM

## Cc1cn2nc(-c3cc(F)c4nn(C5CCNCC5)cc4c3)cc(C(F)F)c2n1 [Compound 350, 8-(difluoromethyl)-6-[7-fluoro-2-(4-piperidyl)indazol-5-yl]-2-methyl-imidazo[1,2-b]pyridazine]
  IC50: < 100 nM

## Cc1cc(-c2cc(F)c3nn(C4CCNCC4)cc3c2)cc2cn(C)nc12 [Compound 351, 7-fluoro-2′,7′-dimethyl-2-(piperidin-4-yl)-2H,2′H-5,5′-biindazole]
  IC50: 100 to 1000 nM

## Fc1cc(-c2ccc3nc(C(F)F)cn3n2)cc2cn(C3CCNCC3)nc12 [Compound 352, 2-(difluoromethyl)-6-(7-fluoro-2-(piperidin-4-yl)-2H-indazol-5-yl)imidazo[1,2-b]pyridazine]
  IC50: 1000 to 9000 nM

## Cc1cc(-c2cc(F)c3nn(C4CCNCC4)cc3c2)nc2cn(C)nc12 [Compound 353, 5-(7-fluoro-2-(piperidin-4-yl)-2H-indazol-5-yl)-2,7-dimethyl-2H-pyrazolo[4,3-b]pyridine]
  IC50: 100 to 1000 nM

## Cc1cn2nc(-c3cc(F)c4nn(C5CCN(C6CC6)CC5)cc4c3)cc(C(F)F)c2n1 [Compound 354, 6-(2-(1-cyclopropylpiperidin-4-yl)-7-fluoro-2H-indazol-5-yl)-8-(difluoromethyl)-2-methylimidazo[1,2-b]pyridazine]
  IC50: 100 to 1000 nM

## Cc1cn2nc(-c3cc(F)c4nn(C5CCNCC5)cc4c3)cc(C)c2n1 [Compound 355, 6-(7-fluoro-2-(piperidin-4-yl)-2H-indazol-5-yl)-2,8-dimethylimidazo[1,2-b]pyridazine]
  IC50: < 100 nM

## Cc1cc(-c2cc(F)c3nn(C4CCN(C)CC4)cc3c2)cc2cn(C)nc12 [Compound 356, 7-fluoro-2′,7′-dimethyl-2-(1-methylpiperidin-4-yl)-2H,2′H-5,5′-biindazole]
  IC50: 100 to 1000 nM

## CCc1cc(-c2cc(F)c3nn(C4CCN(C)CC4)cc3c2)nn2cc(C)nc12 [Compound 357, 8-ethyl-6-(7-fluoro-2-(1-methylpiperidin-4-yl)-2H-indazol-5-yl)-2-methylimidazo[1,2-b]pyridazine]
  IC50: 100 to 1000 nM

## COc1cc(-c2cc(F)c3nn(C4CCN(C)CC4)cc3c2)nn2nc(C)nc12 [Compound 358, 6-(7-fluoro-2-(1-methylpiperidin-4-yl)-2H-indazol-5-yl)-8-methoxy-2-methyl-[1,2,4]triazolo[1,5-b]pyridazine]
  IC50: < 100 nM

## Cc1nc2c(C)cc(-c3cc(F)c4nn(C5CCN(C)CC5)cc4c3)nn2n1 [Compound 359, 6-(7-fluoro-2-(1-methylpiperidin-4-yl)-2H-indazol-5-yl)-2,8-dimethyl-[1,2,4]triazolo[1,5-b]pyridazine]
  IC50: < 100 nM

## Cc1cc2nc(-c3cc(F)c4nn(C5CCN(C)CC5)cc4c3)cc(C)n2n1 [Compound 360, 5-(7-fluoro-2-(1-methylpiperidin-4-yl)-2H-indazol-5-yl)-2,7-dimethylpyrazolo[1,5-a]pyrimidine]
  IC50: 100 to 1000 nM

## Cc1cn2nc(-c3cc(F)c4nn([C@H]5[C@@H]6CNC[C@@H]65)cc4c3)cc(C)c2n1 [Compound 361, 6-[2-[(1R,5S)-3-azabicyclo[3.1.0]hexan-6-yl]-7-fluoro-indazol-5-yl]-2,8-dimethyl-imidazo[1,2-b]pyridazine]
  IC50: < 100 nM

## Cc1cn2nc(-c3cc(F)c4nn(C5CCN(C)CC5)cc4c3)cc(C)c2n1 [Compound 362, 6-(7-fluoro-2-(1-methylpiperidin-4-yl)-2H-indazol-5-yl)-2,8-dimethylimidazo[1,2-b]pyridazine]
  IC50: < 100 nM

## Cc1cn2nc(-c3cc(F)c4nn(C5CCN(C)CC5)cc4c3)cc(C(F)F)c2n1 [Compound 363, 8-(difluoromethyl)-6-(7-fluoro-2-(1-methylpiperidin-4-yl)-2H-indazol-5-yl)-2-methylimidazo[1,2-b]pyridazine]
  IC50: < 100 nM

## Cc1cn2nc(-c3cc(F)c4nn(C5CCN(C)CC5)cc4c3)cc(C)c2n1 [Compound 364, 6-(7-fluoro-2-(1-methylpiperidin-4-yl)-2H-indazol-5-yl)-2,8-dimethylimidazo[1,2-b]pyridazine]
  IC50: 100 to 1000 nM

## Cc1cn2nc(-c3cc(F)c4nn(C5CCNCC5)cc4c3)ccc2n1 [Compound 365, 6-(7-fluoro-2-(piperidin-4-yl)-2H-indazol-5-yl)-2-methylimidazo[1,2-b]pyridazine]
  IC50: < 100 nM

## Cc1cn2nc(-c3cc(F)c4nn(C5CCN(C)C5)cc4c3)cc(C)c2n1 (stereo not drawn) [Compound 366, 6-(7-fluoro-2-(1-methylpyrrolidin-3-yl)-2H-indazol-5-yl)-2,8-dimethylimidazo[1,2-b]pyridazine]
  IC50: 1000 to 9000 nM

## Cc1cn2nc(-c3cc(F)c4nn([C@H]5[C@@H]6CN(CC7CC7)C[C@@H]65)cc4c3)cc(C)c2n1 [Compound 367, 6-[2-[(1R,5S)-3-(cyclopropylmethyl)-3-azabicyclo[3.1.0]hexan-6-yl]-7-fluoro-indazol-5-yl]-2,8-dimethyl-imidazo[1,2-b]pyridazine]
  IC50: 100 to 1000 nM

## CNC1CCC(n2cc3cc(-c4cc(C)c5nc(C)cn5n4)cc(F)c3n2)CC1 (stereo not drawn) [Compound 368, 4-(5-(2,8-dimethylimidazo[1,2-b]pyridazin-6-yl)-7-fluoro-2H-indazol-2-yl)-N-methylcyclohexan-1-amine]
  IC50: 100 to 1000 nM

## Cc1cn2cc(-c3cc(F)c4nn(C5CCNCC5)cc4c3)cc2c(C)n1 [Compound 369, 5-(1,3-dimethylpyrrolo[1,2-a]pyrazin-7-yl)-7-fluoro-2-(piperidin-4-yl)-2H-indazole]
  IC50: < 100 nM

## Cc1cn2nc(-c3cc(F)c4nn(C5CCN(C)CC5)cc4c3)cc2c(C)n1 [Compound 371, 2-(7-fluoro-2-(1-methylpiperidin-4-yl)-2H-indazol-5-yl)-4,6-dimethylpyrazolo[1,5-a]pyrazine]
  IC50: 100 to 1000 nM

## Cc1cn2nc(-c3cc(F)c4nn(C5CCN(CC6CC6)CC5)cc4c3)cc2c(C)n1 [Compound 372, 2-(2-(1-(cyclopropylmethyl)piperidin-4-yl)-7-fluoro-2H-indazol-5-yl)-4,6-dimethylpyrazolo[1,5-a]pyrazine]
  IC50: < 100 nM

## COCCN1CCC(n2cc3cc(-c4cc(C(F)(F)F)c5nc(C)cn5n4)cc(F)c3n2)CC1 [Compound 373, 6-(7-fluoro-2-(1-(2-methoxyethyl)piperidin-4-yl)-2H-indazol-5-yl)-2-methyl-8-(trifluoromethyl)imidazo [1,2-b]pyridazine]
  IC50: < 100 nM

## Cc1cn2nc(-c3cc(F)c4nn(C5CCNCC5)nc4c3)cc(C(F)F)c2n1 [Compound 374, 6-[8-(difluoromethyl)-2-methyl-imidazo[1,2-b]pyridazin-6-yl]-4-fluoro-2-(4-piperidyl)benzotriazole]
  IC50: < 100 nM

## Cc1cn2nc(-c3cc(F)c4nn(C5CCN(C)CC5)nc4c3)cc(C(F)F)c2n1 [Compound 375, 6-[8-(difluoromethyl)-2-methyl-imidazo[1,2-b]pyridazin-6-yl]-4-fluoro-2-(1-methyl-4-piperidyl)benzotriazole]
  IC50: 100 to 1000 nM

## CCN1CCC(n2nc3cc(-c4cc(C)c5nc(C)cn5n4)cc(F)c3n2)CC1 [Compound 376, 6-(2,8-dimethylimidazo[1,2-b]pyridazin-6-yl)-2-(1-ethyl-4-piperidyl)-4-fluoro-benzotriazole]
  IC50: 100 to 1000 nM
